{"source": "patent US6384015B1", "about": "“Selective lysis of malaria infected erythrocytes” (priority 1997, dated 2002)", "test_system": "P. falciparum (New Guinean isolate D10)", "test": "Parasitemia assay in P. falciparum infected human erythrocytes", "assay_type": "cell-based", "method": "P. falciparum (New Guinean isolate D10) cultures were grown and maintained substantially as described in Trager et al. (1976) Science 193, 673-675. Human type O+ blood was obtained from healthy donors. Magainin 2 (Matsuzaki et al., 1995, supra) was made by solid phase peptide synthesis. Parasitemia assays were performed substantially as described in Pasvol et al (1978) Ann Trop Med Parasitol 72, 87-92 and Magowan et al. (1995) Blood 86, 3196-3204. […] Each group was done in triplicate and 7,500 erythrocytes were counted for each data point. […]\nFIG. 1 provides a graphical representation of the data showing the inhibition of parasitemia in infected human erythrocytes over the foregoing time courses and concentrations. In the figure, ● represents data points for the untreated cells, ▪ represents data points for cells treated at 10 uM, ▴ at 25 uM, and ▾ at 50 uM."}
{"substance": "Magainin 2", "values": [{"measurement": "parasitemia", "setting": "10 uM magainin 2, Day 1", "value": 0.92}, {"measurement": "parasitemia", "setting": "10 uM magainin 2, Day 2", "value": 1.88}, {"measurement": "parasitemia", "setting": "10 uM magainin 2, Day 3", "value": 2.40}, {"measurement": "parasitemia", "setting": "10 uM magainin 2, Day 4", "value": 4.52}, {"measurement": "parasitemia", "setting": "25 uM magainin 2, Day 1", "value": 0.41}, {"measurement": "parasitemia", "setting": "25 uM magainin 2, Day 2", "value": 1.88}, {"measurement": "parasitemia", "setting": "25 uM magainin 2, Day 3", "value": 1.61}, {"measurement": "parasitemia", "setting": "25 uM magainin 2, Day 4", "value": 3.68}, {"measurement": "parasitemia", "setting": "50 uM magainin 2, Day 1", "value": 0.52}, {"measurement": "parasitemia", "setting": "50 uM magainin 2, Day 2", "value": 1.43}, {"measurement": "parasitemia", "setting": "50 uM magainin 2, Day 3", "value": 1.96}, {"measurement": "parasitemia", "setting": "50 uM magainin 2, Day 4", "value": 2.87}, {"measurement": "inhibition of parasitemia in infected human erythrocytes", "setting": "10, 25 and 50 uM, over the time course", "value": "dose and time dependent inhibitions of parasitemia"}, {"measurement": "selective lysis of infected versus non-infected erythrocytes", "setting": "P. falciparum infected blood-borne human erythrocytes, Examples 1 and 2", "value": "particular effective at selectively lysing P. falciparum infected blood-borne human erythrocytes as compared with non-infected cells"}]}
